In ChEMBL document CHEMBL1133970, “Novel 3-dodecanoylindole-2-carboxylic acid inhibitors of cytosolic phospholipase A(2)” (Bioorg Med Chem Lett, 2001):

Organism: Homo sapiens
Assay: Cytosolic phospholipase A2 (c-PLA2) inhibitory potency of the compound was evaluated by measuring the calcium ionophore A-23,187-induced arachidonic acid release from human platelets
Type: functional

SMILES	IC50 [nM]
CCCCCCCCCCCC(=O)c1c(C(=O)O)n(CCCCCCCC(=O)O)c2ccccc12	2500
CCCCCCCCCCCC(=O)c1c(C(=O)O)n(CCOc2ccc(CC(=O)O)cc2)c2ccccc12	2600
CCCCCCCCCCCC(=O)c1c(C(=O)O)n(CCOc2ccc(C(=O)O)cc2)c2ccccc12	860
CCCCCCCCCCCC(=O)c1c(C(=O)O)n(CCSc2ccc(C(=O)O)cc2)c2ccccc12	2500
